In paper PMC2652713, “Molecular Blocking of CD23 Supports Its Role in the Pathogenesis of Arthritis” (PLoS ONE, 2009):
“Also recorded” adds a separate entry of the source.

Assays:
[1] = system: adjuvant-induced arthritis in rats; test: Adjuvant-induced arthritis (AIA) clinical score in rats; format: in vivo, rat, Female Lewis
Method: Figure 6 Inhibition of in vitro and in vivo inflammatory responses in rats by p30A peptide. (A) Rat peritoneal macrophages were activated via CD23 antigens with/without p30A, L-NIL or pCtl. Cell supernatants were collected 48 h later and nitrite levels were quantified. Values are mean±s.d. of cells from 3 different rats. (B) Cumulative clinical score/rat obtained following 50 days post-immunization in all groups. AIA rats were treated either after or before (d0) the onset of symptoms. Treatment consisted of p30A, hydrocortisone (HC, 30 mg/rat)) or pCtl (100 mg/rat). Shown are means of cumulative score/rat±s.d. from 5 (HC) or 8 rats (other conditions). (C) Evolution of arthritis severity scores of adjuvant-induced arthritis (AIA) in rats treated with intracutaneous p30A or pCtl (100 mg/rat) or hydrocortisone (after the onset of clinical signs as illustrated by arrows (means from 8 rats, s.e.m.<20%). (D) Histopathologic analysis confirm p30A ability to decrease all components of AIA lesions: pannus formation and inflammation of the synovium (P), deformity of joint and bones (asterix), bone remodeling and destruction (arrowhead), bone neoformation (arrows) and cartilage destruction.
All animal procedures were performed in strict accordance with the guidelines issued by the European Economic Community “86/609”. Female Lewis rats (Janvier, Le Genest St Isle, France) were housed under standard laboratory conditions with free access to food and water. The temperature was kept at 22±2°C and a 12 hour light/dark schedule was maintained.
Adjuvant arthritis was induced in six week-old animals by subcutaneous injection at the base of the tail of 300 µl containing 1.8 mg of inactivated Mycobacterium butyricum (Difco Laboratories, Detroit, MI) diluted in emulsion of 8 ml Vaseline, 1 ml polysorbate 80, and 1 ml PBS (Phosphate Buffer Saline, Eurobio). Rats were boosted one week later following the same procedure. Observation was conducted for up to 50 days following immunization for clinical signs of arthritis. Rats were divided in different groups of 8 rats. Groups were treated with five injections (every 2 days) of either p30A (10, 50 or 100 mg in a PBS solution), pCtl, hydrocortisone (Sigma Aldrich) or PBS solution. Injections were initiated two days after the appearance of first arthritic symptoms (therapeutic) or on the first day of immunization (preventive). Evaluation of AIA severity was performed by two independent observers who where not aware of the study protocol. The severity of AIA in each paw was quantified daily using an ordinal clinical score measurement from 0 to 4 as follows: no signs of inflammation ( = 0); swelling alone (>2 fold paw diameter) ( = 1) or swelling/immobility ( = 2) of one paw; swelling ( = 3) or swelling/immobility ( = 4) of two paws. Weight evolution of rats was measured daily. Rats were sacrificed 50 days after AIA induction. Peritoneal macrophages were collected and incubated in culture medium alone for 48 h. Quantification of TNF-α and IL-1β in rat cell supernatants was performed using appropriate ELISA kits and according to manufacturer's recommendations (Biosource, Montrouge, France).

[2] = system: adjuvant-induced arthritis in rats; test: Histopathologic analysis of AIA lesions; format: in vivo, rat, Female Lewis; conditions: 50 days after AIA induction
Method: Figure 6 Inhibition of in vitro and in vivo inflammatory responses in rats by p30A peptide. (A) Rat peritoneal macrophages were activated via CD23 antigens with/without p30A, L-NIL or pCtl. Cell supernatants were collected 48 h later and nitrite levels were quantified. Values are mean±s.d. of cells from 3 different rats. (B) Cumulative clinical score/rat obtained following 50 days post-immunization in all groups. AIA rats were treated either after or before (d0) the onset of symptoms. Treatment consisted of p30A, hydrocortisone (HC, 30 mg/rat)) or pCtl (100 mg/rat). Shown are means of cumulative score/rat±s.d. from 5 (HC) or 8 rats (other conditions). […]
Adjuvant arthritis was induced in six week-old animals by subcutaneous injection at the base of the tail of 300 µl containing 1.8 mg of inactivated Mycobacterium butyricum (Difco Laboratories, Detroit, MI) diluted in emulsion of 8 ml Vaseline, 1 ml polysorbate 80, and 1 ml PBS (Phosphate Buffer Saline, Eurobio). […] The severity of AIA in each paw was quantified daily using an ordinal clinical score measurement from 0 to 4 as follows: no signs of inflammation ( = 0); swelling alone (>2 fold paw diameter) ( = 1) or swelling/immobility ( = 2) of one paw; swelling ( = 3) or swelling/immobility ( = 4) of two paws. Weight evolution of rats was measured daily. […]

[3] = system: human CD23+ monocyte-derived macrophages; test: Nitrite (NO) generation by CD23-activated human macrophages, Griess reaction; format: cell-based
Method: (§1) Figure 2 Inhibition of CD23-mediated activation of iNOS pathway in human macrophages by p30A. Human CD23^+ monocyte-derived macrophages were incubated with cross-linking CD23-McAb (20 µg/ml) alone or following 1 h pre-incubation with 10 µg/ml of various peptides. […] Expression of iNOS mRNA was compared to HPRT mRNA levels. (B) Inhibition of NO generation from human activated macrophages by synthetic peptides. Cell supernatants were collected 72 h following cell cultures and levels of nitrites were determined. […] Results are expressed as mean of 3 distinct donor cell preparations (SEM<20%). (C) Inducible NOS-mediated NO generation in human macrophages is decreased following pre-incubation with p30A or L-NIL prior to CD23-mediated activation. Results are expressed as mean±s.d. of 7 distinct donor cell preparations.
Monocytes or macrophages were activated through CD23 pathway: while monocytes/macrophages from RA patients express CD23, monocytes from healthy donors must be pre-activated to express surface CD23 as described. This pre-activation was obtained by incubation of healthy monocytes with recombinant human IL-4 (20 ng/ml) during 48 h at 37°C; After washing, all cell populations were tested by flow cytometry for their surface CD23 expression (>80% CD23^+) and then incubated in the presence of cross-linking CD23-MAb (clones 135 or DM2, IgG1k, 20 µg/ml) during 48–72 h, or IgE and anti-IgE as described, [17]. When indicated, peptides were added to the cells 2 h prior to their activation. Cells supernatants were then analyzed for their nitric oxide content (see below) and for the presence of cytokines: levels of TNF-α and IL-6 were determined in duplicates for each sample by a specific ELISA (R&D, Paris, France) while levels of IL-1β, IL-8 and IL-10 was determined using FlowCytomix Human Th1/Th2 Kit as recommended (Bender Medsystems, Vienna, Austria).
Culture supernatants (72 h) were assayed for the stable end-product of NO, NO2 ^− using the Griess reaction modified as detailed elsewhere. Inhibitory analog of L-arginine, L-NIL (N(6)-(1-iminoethyl)-L-lysine/2HCl, Coger SA, Paris, France) was used to inhibit iNOS-mediated NO generation. This method gave a sensitivity limit of 0.2 µM if low NO2 ^− medium (DMEM) was used. Total RNA was isolated as above from peritoneal macrophages. Reverse transcription-PCR was performed with an automatic thermal cycler (iCycler, Biorad) using the following specific primers: iNOS mRNA sense (5′-[…]-3′, exon 8) and iNOS mRNA antisense (5′-[…]-3′, exon 11). Hypoxanthine phosphoribosyltransferase (HPRT) mRNA sense (5′-[…]-3′) and HPRT mRNA antisense (5′-[…]- 3′) primers were used as controls. The iNOS messenger is represented by a 371-bp band, whereas a 496-bp band indicates the HPRT messenger.

[4] = system: iNOS mRNA in human CD23+ monocyte-derived macrophages; test: iNOS mRNA expression (RT-PCR) in CD23-activated human macrophages; format: cell-based; conditions: CD23-McAb 20 µg/ml, 1 h pre-incubation with 10 µg/ml peptide, versus HPRT mRNA
Method: as §1
Monocytes or macrophages were activated through CD23 pathway: while monocytes/macrophages from RA patients express CD23, monocytes from healthy donors must be pre-activated to express surface CD23 as described. […] Cells supernatants were then analyzed for their nitric oxide content (see below) and for the presence of cytokines: levels of TNF-α and IL-6 were determined in duplicates for each sample by a specific ELISA (R&D, Paris, France) while levels of IL-1β, IL-8 and IL-10 was determined using FlowCytomix Human Th1/Th2 Kit as recommended (Bender Medsystems, Vienna, Austria). […]

FHENWPS [p30A] was tested. Which “cumulative clinical score vs non-treated rats” value ([1]; AIA rats, 50 days post-immunization, five intracutaneous doses every two days, 8 rats, p<0,0001) did it give?
The value was “significantly improved the clinical course of AIA rats”.

What about the “decrease of arthritic scores compared with hydrocortisone” value ([1]; AIA rats, hydrocortisone 30 mg/rat) of the same substance?
Its value is “more efficient than hydrocortisone in decreasing arthritic scores”.

And the “arthritic signs, dose-dependence” value ([1]; AIA rats, p30A 10, 50 or 100 mg, five injections every 2 days)?
Its value is “decreased arthritic signs in rats in a dose-dependent manner”.

And the “effectiveness after disease onset or for prevention” value ([1]; AIA rats, therapeutic or p30A-d0, p<0.0002)?
Its value is “effective either after disease onset or for the prevention”.

What about the “prevention of severe clinical signs” value ([1]; p30A administered prior to disease induction) of the same substance?
Its value is “prevented the development of severe clinical signs in rats”.

And the “clinical scores and bone destruction” value ([1]; rat model of arthritis)?
The value was “ameliorates clinical scores and prevent bone destruction in a dose dependent manner”.

What about the “duration of dose-dependent effect” value ([1]; rat model of chronic arthritis, indirectly supports stability of p30A in vivo) of the same substance?
The value was “> one month”.

And the “components of AIA arthritic lesions (pannus formation and synovium inflammation, joint/bone deformity, bone remodeling and destruction, bone neoformation, cartilage destruction)” value [2]?
The value was “significantly decreased all components of AIA arthritic lesions”.

And the “NO (nitrite) generation, dose-dependence” value ([3]; CD23-McAb 20 µg/ml, 1 h pre-incubation with peptide, supernatants at 72 h, mean of 3 donors (SEM<20%))?
The value was “reversed by p30A in a dose-dependent manner; also recorded: Dose-dependent reduction of nitrites”.

What about the “iNOS-mediated NO generation” value ([3]; pre-incubation prior to CD23-mediated activation, mean±s.d. of 7 donors (Figure 2C)) of the same substance?
Its value is “decreased”.

And the “iNOS-encoding mRNA level” value [4]?
The value was “reduced the levels of inducible nitric oxide synthase (iNOS)-encoding mRNA; also recorded: decreased in cells pre-incubated with p30A”.
